Results: paper PMC3036843 (Bioconjugate chemistry, 2010)
pIC50: −log10 of the molar value. Values belong to the compound of their own block, whether it stands above or below them.

Key:
[1] = test system: L1210FR; conditions: for differences in IC50 values against the three cell lines: L1210FR, L1210, WI38, at most
[2] = test system: L1210; assay: cells; conditions: Mus musculus, L1210, 72 h, read-out: Cytotoxicities (IC50), L1210
[3] = in vitro; conditions: human, WI38 human lung fibroblast cells
[4] = taxoid released from first-generation mAb-taxoid DDS; cited from earlier work
[5] = test system: L1210FR cells; assay: Internalization of biotin-FITC probe 2 by CFM and flow cytometry; assay type: cell-based, murine; conditions: 100 nM

Compound: CC(=O)O[C@@]12CO[C@@H]1C[C@H](O)[C@@]1(C)C(=O)[C@H](OC(=O)C3CC3)C3=C(C)[C@@H](OC(=O)[C@H](O)[C@H](C=C(C)C)NC(=O)OC(C)(C)C)C[C@@](O)([C@@H](OC(=O)c4ccccc4)[C@H]21)C3(C)C [SB-T-1214]
times more potent than paclitaxel ([1]; against L1210FR): ca. 13 times

pIC50 ([1]; mouse, 72 h): 6.92
IC50 at 72 h [3]: 0.157 µM
Compound: CC(=O)O[C@H]1C(=O)[C@@]2(C)[C@H]([C@H](OC(=O)c3ccccc3)[C@]3(O)C[C@H](OC(=O)[C@H](O)[C@@H](NC(=O)c4ccccc4)c4ccccc4)C(C)=C1C3(C)C)[C@]1(OC(C)=O)CO[C@@H]1C[C@@H]2O [paclitaxel, reference compound]
differences in IC50 values against the three cell lines [1]: less than 45%
pIC50 [2]: 6.82

Compound: SB-T-1214-fluorescein [compound 24]
differences in IC50 values against the three cell lines [1]: less than 45%
times less potent than the parent SB-T-1214 ([1]; against L1210FR): ca. 9 times

Compound: SB-T-12136-SH
cytotoxicity, times weaker than the parent taxoid (SB-T-1213) [4]: 8 times

Compound: biotin-FITC [compound 2]
diminished fluorescence in the cells at 4 °C ([5]; 4 °C, 3 h versus 37 °C, by flow cytometry): ca. 6 times
internalization into L1210FR cells (CFM) ([5]; 37 °C, 3 h): efficient internalization
decrease in fluorescence after pre-incubation with excess free biotin ([5]; 37 °C, 3 h, biotin 2 mM pre-incubated 1 h): ca. 4.5 times
decrease in fluorescence inside the cells in the presence of NaN3 ([5]; 3 h, 37 °C, 0.05 % (w/v) NaN3): ca. 4 times
